This is an account of results in US5733904A, “Method for prevention and treatment of viral infectious diseases for viral suppression” (priority 1996, dated 1998).

The structures appear in SMILES notation. Bounds are passed on as bounds.

Data set [1] concerns HIV-1 (LAV-1 strain) in MOLT-4 cells. The data set can be described thus: Inhibitory activity of HIV syncytia formation: HIV-1 acute-phase infection. The class given is cell-based. The note with it: in concentrations of at least 1.0 μM; 48 hours. The procedure: a) Activity of the medicament on HIV-1 acute-phase infection:
Cells obtained by culturing MOLT-4 (American Type Culture Collection ATCC CRL-1582) in RPMI medium (GIBCO Corp.) containing 10% FBS (fetal bovine serum: GIBCO Corp.) (culture condition: 37° C., 5% CO2 /95% air) were prepared to aliquot number of cells (1×10^5 cells/50 μl). The cell suspension, 50 μl and the liquid preparation, 50 μl containing HIV-1 (LAV-1 strain, Wain-Hobson et al., Cell 40: 9-17, 1985) in RPMI medium with 10% FBS were put into each well of a 96 hole microplate and cultured for 48 hours (Infectious condition of MOLT-4 and HIV-1: M.O.I.=4.0).
Each compound was dissolved in RPMI medium containing 10% FBS at the final concentration as shown in FIG. 1 to prepare the medicament solution. The medicament solution, 100 μl was added to the mixture of MOLT-4 cell preparation and HIV-1 preparation at the time of mixing with MOLT-4 and HIV-1 to prepare the final volume of the liquid, 200 μl. The number of formed syncytia were microscopically counted.
Tested compounds were: FAS (fasudil hydrochloride, Chem. Pharm. Bull., 40 (3), 770-773, (1992)), C kinase inhibitor H-7 (1-5-isoquinolinylsulfonyl)-2-methyl-piperazine, Sigma Corp.), and calmodulin kinase II inhibitor KN-62 (1-(N,O-bis-[5-isoquinolinylsulfonyl]-N-methyl-L-tyrosyl)-4-phenyl-piperazine, Sigma Corp., Neuroscience Lett., 129, 47 (1991)) .
The control group without the compound was prepared by replacing the medicament solution, 100 μl.
Syncytium formation activity was calculated by comparing the syncytia formation in the test group to that of the control group in the following equation.
Syncytium formation activity=number of syncytia formed in the medicament-added group/number of syncytia formed in the no-medicament-added group.

Data set [2] has as its system HIV-1 (LAV-1) persistently infected MOLT-4 cells with non-infected MOLT-4 cells. The data set can be described thus: Inhibitory activity of HIV syncytia formation: HIV-1 chronic-phase infection. The data set is classed as cell-based. The method, then: b) Activity of the medicament on HIV-1 chronic-phase infection:
Cells obtained by culturing MOLT-4 (culture condition: 37° C., 5% CO2 /95% air, RPMI medium (GIBCO Corp.) containing 10% FBS) were adjusted to a preferable number of cells (1×10^5 cells/50 μl). HIV-1 (LAV-1) preparation, 50 μl was added to the cell suspension, 50 μl and subjected to a mixing culture (infectious condition of HIV-1 to MOLT-4: M.O.I.=1). The infected cell mixture was cultured by exchanging a fresh culture medium every 3 days at a volume rate of 2:5. The culture was continued for more than 1 month to prepare persistent infected cells. The concentration of the persistent infected cells was adjusted to a preferable number of cells (1×10^5 cells/50 μl ) (the persistent infected cell preparation).
Cell preparation without infection was prepared by culturing MOLT-4 (culture condition: 37° C., 5% CO2 /95% air, RPMI medium (GIBCO Corp.) containing 10% FBS) and adjusting the concentration to a preferable number of cells (1×10^5 cells/50 μl).
The persistent infected cell preparation, 50 μl, was placed in the wells of a 96 hole microplate and the non-infected cell preparation, 50 μl, was added therein and cultured for 48 hours. Numbers of the formed syncytia were counted microscopically.
Each compound solution tested was added, 100 μl, at the time of mixing the persistent infected cell preparation with the non-infected cell preparation, to provide the final concentrations shown in FIG. 2 (medicament added test group).
The no-medicament-added group (control group) was prepared by replacing the compound solution, 100 μl.

The next data set can be described thus: Acute toxicity in rats. The arrangement: species or system rat (Jcl: Wistar, 5 weeks). The note with it: rat, in vivo. The method, then:
Acute toxicity of the compounds of the present invention were conducted on rats and mice, and low toxicity was confirmed.

The subject of data set [3] is Herpes simplex virus type I. In words: Inhibitory action for plaque formation of Herpes simplex virus type I. The data set is classed as cell-based. Conditions: mean of two, control 51. The procedure:
Experiments were performed according to a method described in Antiviral Chemistry and Chemotherapy, 5 (6), 366-371, 1994 and Experimental Virology, Ed. by NIH Japan alumni assoc., Maruzen Publ. 1982, p. 65-78 or p. 331-340.
Vero cells cultured in the medium (Dulbecco's modified MEM added with 10% FBS) were detached by trypsin (Sigma Corp.). The detached cells were suspended by 2×10^5 cells/ml in the same medium, and placed in the wells of a 48 hole plate. The plate was incubated at 37° C. under 5% CO2 for about one day to complete a full-sheet of the cells in all wells. After incubation, cultured supernatant was removed. A solution (50 μl) containing the compound diluted with 4-fold stepwise dilution by virus culture medium (MM: Dulbecco's modified MEM added with 2% FBS), was added thereto.
A viral solution, 50 μl, in which the number of virus (parainfluenza virus or Herpes simplex virus type I) was adjusted to about 50 pfu (plaque forming unit)/50 μl by MM, was added to each well. MM 400 μl containing 1% methylcellulose was added in each well to provide a compound-added test group. A control group was prepared by adding the viral culture medium without adding the test compound.
The groups were incubated at 37° C. under 5% CO2 for three days to form plaques and the number of plaques in each well was counted.
The test compounds were FAS, and the compound of formula [I] where R^1 is hydroxy. The final concentration of the compound in the solution was set to 100, 25, 6.3 and 1.6 μg/ml, respectively. Each test group included 2 wells and a mean of the plaque numbers was obtained.

In data set [4] the test system is myosin light chain kinase. Conditions: Cranial Nerve, 45 (9), 819-824, 1993; cited from earlier work.

On to `Cl.O=S(=O)(c1cccc2cnccc12)N1CCCNCC1` [FAS, hexahydro-1-(5-isoquinoline-sulfonyl)-1H-1,4-diazepine hydrochloride], for which, in data set [1], the “inhibition of syncytia formation” value was determined as 90%. Moreover, in data set [2], the “viral transmission from persistent infected cells to non-infected cells” value was “suppressed”. Further, the “inhibitory activity for syncytium formation” value in data set [2] (FIG. 2, 48 hours) is “extremely high suppressive action on syncytium formation”. Also, in data set [2] (Human immunodeficiency virus 1, MOLT-4, 48 hours, persistent infected cells mixed with non-infected cells, read-out: concentration showing inhibitory activity for syncytium formation), the minimal effective concentration was at least 3.75 µM. For the same molecule, the LD50 is 63.9 mg/kg in the data set “Acute toxicity in rats” (iv, i. v., female); 59.9 mg/kg in the data set “Acute toxicity in rats” (iv, i. v., male); 348 mg/kg in the data set “Acute toxicity in rats” (po, p. o., female); 335 mg/kg in “Acute toxicity in rats” (po, p. o., male); 128 mg/kg in “Acute toxicity in rats” (sc, s. c., female); 123 mg/kg in the data set “Acute toxicity in rats” (sc, s. c., male). Moreover, the “Plaque No.” value in data set [3] (1.6 μg/ml) stood at 51; in data set [3] (6.3 μg/ml) it was 46; in data set [3] (25 μg/ml) it was 49; in data set [3] (100 μg/ml), 0. Besides, in data set [4], the “myosin light chain kinase inhibition” value was “myosin light chain kinase inhibition”.
